# Test results as given in US11013752B2, “Combination therapies for inner ear sensory hair cell regeneration/replacement” (Hough Ear Institute, priority 2016, dated 2021).
# Entries after “also recorded” stand apart in the source; their conditions may differ.
# How the values were obtained:
# [1] = tested on: Madin-Darby Canine Kidney (MDCK) cells; type: cell-based
# Description: FIG. 19 depicts representative images of GSK3I-mediated proliferation in serum-starved MDCK cells. Cells were initially cultured in the presence of 10% fetal bovine serum (FBS) and then switched to serum-free media for 24 hours prior to the addition of 0.2% serum-containing media which included GSK3Is at the indicated concentrations in the presence of 10 μM EdU. Cells were cultured an additional 48 h prior to fixation and visualization of EdU-positive nuclei (green) via conjugation of AlexaFluor488 azide in a copper-catalyzed cycloaddition (“Click” reaction, Click-iT Edu, Life Technologies). Total nuclei were stained with DAPI (blue). NC, normal control or untreated cells cultured in the presence of 10% FBS throughout the experimental time course.
# EdU-positive nuclei from imaged fields of MDCK cells cultured as described in FIG. 13 were quantified using ImageJ software (NIH) and graphed as the averaged percentile of the number of EdU-positive cells relative to the total number of DAPI-stained nuclei in each field. A minimum of four fields of cells for each experimental condition were included in this analysis. (* and ***, p<0.05 and 0.001, respectively, for statistically significant increases in EdU-positive nuclei relative to untreated, serum-starved controls).
# Tideglusib was procured from Cayman Chemical Company and performed a dose curve analysis under serum starvation conditions with Madin-Darby Canine Kidney (MDCK) cells in parallel with a series of commercially-available GSK3 inhibitors to ascertain its relative proliferative potential under mitotically-suppressed conditions in this well-established mammalian epithelial cell line. In these experiments, MDCK cells were cultured under serum starvation conditions for 24 hours prior to culturing cells for 48 hours in the presence of GSK3 inhibitors and 10 μM EdU (5-ethynyl-2′-deoxyuridine), a nucleoside analog that permanently marks cells that have undergone DNA replication.
# [2] = tested on: neonatal murine utricular maculae; assay: BIO, siHes1 and GSI in neomycin-damaged utricle cultures; type: cell-based, CD1 mice; conditions: NEO-ablated utricles; BIO 2.5 μM, 20 nM Hes1 siRNA, GSI 5 μM
# Description: To assess whether BIO can enhance the therapeutic efficacy of Hes1 siRNA in regenerating HCs following a toxic insult, neonatal murine utricular tissues were exposed to neomycin (NEO) and then either left untreated or were treated with one or both of the therapeutic agents. After a total of 8 days in vitro, tissues were fixed and labeled with the HC marker, Myo7a. ###, p<0.001 difference in Myo7a-postive cells relative to untreated controls. *, **, and ***, p<0.05, 0.01, and 0.001, respectively, with respect to significant differences in the number of Myo7a-postive cells between treatment groups.
# Organotypic cultures from murine utricular maculae (balance organ sensory epithelia) were cultured and then harvested on postnatal day 3 (P3) from CD1 mice. These explants were then cultured in appropriate media for twenty-four hours. […] All cultures were then maintained in media without either of the test agents for a final 24 h, after which tissues were fixed in 4% paraformaldehyde solution and subjected to immunolabeling with an antibody against the hair cell marker, myosin VIIa (Myo7a), and an appropriate secondary antibody for subsequent immunofluorescence-mediated quantification of HCs along the length of the cochlear spiral (FIGS. 14-17).
# [3] = tested on: postnatal (P3) murine (CD1) OC explants; assay: siHes1 NPs with Tideglusib in neomycin-ablated OC explants; type: cell-based
# Description: Postnatal (P3) murine (CD1) OC explants were exposed to the ototoxic aminoglycoside, neomycin, for 24 h and then treated with 60 nM siHes1 NP alone; the GSK3 inhibitor, Tideglusib (TIDE), alone (2 μM); or a combination of 60 nM siHes1 NP with escalating doses of Tideglusib (0.5, 2, or 10 μM) for 6d prior to fixation and immunolabeling against the HC-specific marker, Myo7a. Middle turn as fixed reference among images shown.
# NEO-ablated OCs were treated with a suboptimal (60 nM) dose of siHes1 NPs either alone or in combination with escalating doses of TIDE. […] The sustained release profile of siHes1 NPs mimics staged application of the two therapeutics.
# Applicants hypothesized that the delayed, yet sustained, release of siHes1 from biocompatible PLGA NPs would recapitulate the therapeutic attributes of staged application of a GSK3 inhibitor and siRNA against Hes1 when the two drugs were co-administered. To test this hypothesis, a sub-maximal efficacious dose (60 nM) of siHes1 NPs with escalating doses (0.5, 2, and 10 μM) of the GSK3I, tideglusib, in order to have sufficient experimental margin were used to assess a regenerative dose-response profile in organotypic cultures of neomycin (NEO)—exposed organs of Corti (OCs). Using this paradigm, NEO-ablated OCs were subsequently cultured with siHes1 NPs alone or in combination with Tideglusib over the course of six days prior to fixation and immunohistological analyses.
# [4] = tested on: sensory epithelial region of postnatal day 3 OCs; assay: EdU-labeling of mitotically-active cells in postnatal organ of Corti; type: cell-based; conditions: 0.5 or 2.0 μM, 72 hours, vs vehicle
# Description: FIG. 21 depicts EdU-labeling of mitotically-active cells in the postnatal organ of Corti in response to Tideglusib treatment. Postnatal day 3 OCs were harvested and cultured in vitro for 24 hours prior to the addition of culture media containing 10 μM EdU in the presence of either vehicle alone (DMSO) or tideglusib (TIDE) at a final concentration of 0.5 or 2.0 μM. Organotypic cultures were cultured continuously in the presence of these agents for 72 hours prior to fixation and visualization of EdU-positive nuclei as described above. Images of the middle turn of the OC from each group are shown. Brackets denote the sensory epithelial region in each image.
# A targeted pilot experiment was conducted in which postnatal OCs were cultured continuously for 72 hours in the presence of EdU and either tideglusib or vehicle alone to assess whether the GSK3 inhibitor was capable of inducing a mitotic response in the sensory epithelial region of the OC. […] Follow-up analyses will indicate whether this tideglusib-induced proliferative response in the OC involves supporting cells, hair cells, or both, using cell type-specific markers.
# [5] = tested on: organotypic cultures of murine OCs; assay: Hair cell counts in neomycin-damaged OC cultures treated with TIDE and/or siHES1 lipofection complexes; type: cell-based; conditions: for Hair Cell Counts ± SEM, Mid-apical turn / Hair Cell Counts ± SEM, Middle Turn: neomycin 0.7 mM 24 h, 10.0 μM TIDE, siHES1 20 nM lipofection complexes (FIG. 22)
# Description: (§1) FIG. 22 depicts hair cells (Myo7a+ cells) quantified from the mid-apical and middle regions of organotypic cultures of murine OCs following a 24 h exposure to neomycin (0.7 mM) and subsequent recovery in the presence or absence of the GSK3 inhibitor Tideglusib (TIDE) and/or siHES1 (20 nM) lipofection complexes (JetSI, Polyplus).
# as §1, with “23” for “22”
# as §1, with “25” for “22”, “mid-apical, middle,” for “mid-apical”, “mid-basal” for “middle”, “Polyplus). One set of NEO-ablated OCs were treated with TIDE then siHes1 in the presence of 2 ng/mL FGF-2 as a media supplement with the aim of potentially enhancing the effects of Tideglusib.” for “Polyplus).”
# The protocol described above for BIO is used, substituting the addition of BIO for 10.0 μM Tideglusib (TIDE). A third treatment group is added, where Tideglusib is included in the culture medium after siHes1, parallel to the other protocols: on P4 or P5 (depending on whether there was an ototoxic insult to simulate hair cell loss) the control media is added with or without the inclusion of 10.0 μM TIDE; on P7 siHes1 is added in the presence of absence of TIDE; and on P9 10.0 μM Tideglusib is included in the media for a subset of cultures. On P11, all media is replaced with fresh media without any therapeutics. On P12, the tissues are fixed for immunolabeling. An example of comparative analyses from this treatment paradigm, following an exposure to the ototoxic aminoglycoside, NEO, is depicted in FIG. 22.
# This experimental paradigm was again repeated adding additional treatment groups where FGF-2 was optionally included in the culture medium at 2 ng/mL at P5, P7, and P9 for a subset of cultures.
# [6] = tested on: Hes1 transcript in IMO-2B1 murine inner ear cell line; assay: Hes1 knockdown efficiency by RT-qPCR, transfected siHES1 molecules; type: cell-based; conditions: IMO-2B1, RNAiMAX, 48 hours after transfection
# Excerpt: FIG. 27 depicts reverse transcription-quantitative polymerase chain reaction (RT-qPCR) results from comparative dose curve analyses of Hes1 knockdown efficiency relative to mock-treated controls in a murine inner ear cell line (IMO-2B1), using two distinct siHES1 molecules with conserved target sites among mammalian Hes1 transcripts. SiRNA molecules were transfected into sub-confluent wells of IMO-2B1, using a commercial transfection agent (RNAiMAX, ThermoFisher Sci.). Forty-eight hours after transfection, total RNA was isolated and subjected to RT-qPCR analyses, using primers against Hes1 and the house keeping gene GAPDH. Relative Hes1 levels were determined by the 2^−ΔΔCT method (See Livak and Schmittgen (2001) Methods 25(4):402-408, incorporated by reference in its entirety). The apparent potency of molecule #7 for depleting Hes1 transcript levels was considerably greater than that of molecule #1, as optimal knockdown using molecule #7 was observed using as little as 2 nM siRNA (relative to ˜20 nM required for molecule #1).
compound,measurement,setting,value
"O=C1Nc2cc(Br)ccc2/C1=C1/Nc2ccccc2/C1=N\O [BIO, 6-bromoindirubin-3′-oxime]",proliferative response (EdU-positive nuclei),"[1]; serum-starved MDCK, 48 h, across dose range tested (up to 10 μM)",reduced numbers of EdU-positive nuclie
same,HC numbers (Myo7a-positive cells) in striolar/extrastriolar region,[2],increased HC numbers within the striolar region
"O=c1sn(-c2cccc3ccccc23)c(=O)n1Cc1ccccc1 [TIDE, tideglusib]","siHes1 NP regenerative efficacy, middle turn","[3]; 10 μM Tideglusib with 60 nM siHes1 NPs, relative to siHes1 NPs alone",statistically-significant increases
same,"siHes1 NP regenerative efficacy, basal turn","[3]; 2 and 10 μM Tideglusib with 60 nM siHes1 NPs, relative to siHes1 NPs alone",statistically-significant increases
same,HC numbers / densities with combined treatment,"[3]; NEO-ablated OCs, 60 nM siHes1 NP plus Tideglusib 0.5, 2 or 10 μM, 6 d",concentration-dependent enhancement of siHes1 NP-induced hair cell (HC) regeneration
same,regenerative response (HC numbers),"[3]; Tideglusib alone (2 μM), NEO-ablated OCs",did not induce a statistically significant regenerative response
same,"siHes1 NP regenerative efficacy, mid-apical region",[3]; Tideglusib with 60 nM siHes1 NPs vs siHes1 NPs alone,no statistically-significant differences between the treatment groups
same,mitotic response (EdU-positive nuclei) in sensory epithelial region,[4],greater incidence of EdU-positive nuclei; also recorded: markedly greater mitotic response in the sensory epithelial region
same,"Hair Cell Counts ± SEM, Mid-apical turn",[5],9.1 ± 1.6
same,"Hair Cell Counts ± SEM, Middle Turn",[5],2.8 ± 0.8
"NC[C@@H]1O[C@H](O[C@H]2[C@@H](O)[C@H](O[C@@H]3[C@@H](O)[C@H](N)C[C@H](N)[C@H]3O[C@H]3O[C@H](CN)[C@@H](O)[C@H](O)[C@H]3N)O[C@@H]2CO)[C@H](N)[C@@H](O)[C@@H]1O [NEO alone, neomycin]","Hair Cell Counts ± SEM, Mid-apical turn",[5],5.1 ± 1.1
same,"Hair Cell Counts ± SEM, Middle Turn",[5],2.5 ± 0.8
"C[C@H](NC(=O)Cc1cc(F)cc(F)c1)C(=O)N[C@@H]1C(=O)N(C)c2ccccc2-c2ccccc21 [GSI, deshydroxy LY 411575]",HC numbers (Myo7a-positive cells) in striolar/extrastriolar region,[2],increased HC numbers within the striolar region
"Molecule 1: siRNA, murine Hes1 mRNA nt 239-257, SEQ ID NO: 1 and 2 (chain 1 CAGCUGAUAUAAUGGAGAATT; chain 2 UUCUCCAUUAUAUCAGCUGTT; chemistry not given here)",siRNA concentration for optimal Hes1 knockdown,[6],~20 nM
Cc1c[nH]c(-c2cnc(NCCNc3ccc(C#N)cn3)nc2-c2ccc(Cl)cc2Cl)n1 [CHIR-99021],number of EdU-positive nuclei,"[1]; 10 μM, relative to untreated serum-starved cells","statistically insignificant relative to untreated, serum-starved cells"
same,mitotically-active cells (EdU-positive nuclei),"[1]; low-dose (0.1 μM), serum starvation","robust, statistically-significant increase in mitotically-active cells"
FGF-2: basic fibroblast growth factor used as media supplement,effect of FGF-2 media supplement on HC regeneration,"[5]; 2 ng/mL FGF-2, NEO-ablated OCs, with or without TIDE then siHes1",did not elicit a therapeutic response on its own; also recorded: potentiated the therapeutic effects of TIDE/siHES1 treatment through the mid-basal turn of the OC
"[Cl-].[Li+] [LiC1, lithium chloride]",EdU-positive cells,"[1]; 10 mM, relative to identical dose of sodium chloride",increased numbers of EdU-positive cells
"Molecule 7: siRNA, human Hes1 mRNA nt 673-691, SEQ ID NO: 13 and 14 (chain 1 ACUGCAUGACCCAGAUCAA; chain 2 UUGAUCUGGGUCAUGCAGU; listed as RNA, chemistry not given here)",siRNA concentration for optimal Hes1 knockdown,[6],2 nM
